Data: patent US20040006236A1, “Diaminopropionic acid derivatives” (priority 1999, published 2004)

Target: T1, LFA-1 binding to immobilized ICAM-1 (Homo sapiens, UniProt P05107+P20701)
T1 construct: made in house; host or cells: transfected 293 cells (LFA-1)
Test: LFA-1/ICAM-1 protein-protein assay (solid-phase ELISA)
Conditions: read-out: LFA-1/ICAM-1 Protein-Protein Assay IC50
Procedure, shortened: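 Human 5dICAM-Ig (ICAM-1 extracellular domain–IgG Fc) coated on plates; membrane-bound LFA-1 from transfected 293 cells (280 ng/mL) added with compound in Mn2+-containing HEPES buffer pH 7.2, 2 h at 37° C. Bound LFA-1 detected via anti-β2 antibody and HRP/TMB at 450 nm; IC50s determined.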

T1 sequence (P20701 26-1170): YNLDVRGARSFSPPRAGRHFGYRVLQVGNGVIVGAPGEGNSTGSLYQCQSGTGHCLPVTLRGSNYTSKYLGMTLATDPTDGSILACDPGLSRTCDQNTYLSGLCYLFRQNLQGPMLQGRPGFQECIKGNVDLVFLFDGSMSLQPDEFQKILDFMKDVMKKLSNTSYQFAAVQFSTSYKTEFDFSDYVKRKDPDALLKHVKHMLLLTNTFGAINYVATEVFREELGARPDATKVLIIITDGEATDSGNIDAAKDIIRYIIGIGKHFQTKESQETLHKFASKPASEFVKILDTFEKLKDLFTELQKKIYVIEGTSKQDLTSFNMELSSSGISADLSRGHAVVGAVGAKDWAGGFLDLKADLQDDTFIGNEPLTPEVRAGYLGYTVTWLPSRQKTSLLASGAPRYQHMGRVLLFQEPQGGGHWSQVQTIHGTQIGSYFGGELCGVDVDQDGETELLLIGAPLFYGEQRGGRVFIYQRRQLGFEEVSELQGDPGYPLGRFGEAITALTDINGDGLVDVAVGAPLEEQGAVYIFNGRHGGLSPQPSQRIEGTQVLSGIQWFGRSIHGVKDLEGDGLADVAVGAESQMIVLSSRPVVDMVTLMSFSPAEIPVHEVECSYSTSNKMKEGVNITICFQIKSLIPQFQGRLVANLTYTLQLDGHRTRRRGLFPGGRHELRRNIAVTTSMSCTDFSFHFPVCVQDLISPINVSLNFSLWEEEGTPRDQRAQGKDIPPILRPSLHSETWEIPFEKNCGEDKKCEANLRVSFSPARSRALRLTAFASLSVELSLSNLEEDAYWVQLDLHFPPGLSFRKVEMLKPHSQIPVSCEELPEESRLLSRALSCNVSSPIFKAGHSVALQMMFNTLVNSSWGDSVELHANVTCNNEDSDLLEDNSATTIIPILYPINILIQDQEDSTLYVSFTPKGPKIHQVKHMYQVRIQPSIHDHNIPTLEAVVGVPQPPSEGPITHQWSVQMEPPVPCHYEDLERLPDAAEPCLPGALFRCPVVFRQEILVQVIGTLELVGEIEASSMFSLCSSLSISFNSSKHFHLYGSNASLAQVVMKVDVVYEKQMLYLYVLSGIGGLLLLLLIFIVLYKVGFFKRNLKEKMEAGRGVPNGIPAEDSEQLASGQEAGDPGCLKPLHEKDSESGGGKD
T1 sequence (P05107 23-769): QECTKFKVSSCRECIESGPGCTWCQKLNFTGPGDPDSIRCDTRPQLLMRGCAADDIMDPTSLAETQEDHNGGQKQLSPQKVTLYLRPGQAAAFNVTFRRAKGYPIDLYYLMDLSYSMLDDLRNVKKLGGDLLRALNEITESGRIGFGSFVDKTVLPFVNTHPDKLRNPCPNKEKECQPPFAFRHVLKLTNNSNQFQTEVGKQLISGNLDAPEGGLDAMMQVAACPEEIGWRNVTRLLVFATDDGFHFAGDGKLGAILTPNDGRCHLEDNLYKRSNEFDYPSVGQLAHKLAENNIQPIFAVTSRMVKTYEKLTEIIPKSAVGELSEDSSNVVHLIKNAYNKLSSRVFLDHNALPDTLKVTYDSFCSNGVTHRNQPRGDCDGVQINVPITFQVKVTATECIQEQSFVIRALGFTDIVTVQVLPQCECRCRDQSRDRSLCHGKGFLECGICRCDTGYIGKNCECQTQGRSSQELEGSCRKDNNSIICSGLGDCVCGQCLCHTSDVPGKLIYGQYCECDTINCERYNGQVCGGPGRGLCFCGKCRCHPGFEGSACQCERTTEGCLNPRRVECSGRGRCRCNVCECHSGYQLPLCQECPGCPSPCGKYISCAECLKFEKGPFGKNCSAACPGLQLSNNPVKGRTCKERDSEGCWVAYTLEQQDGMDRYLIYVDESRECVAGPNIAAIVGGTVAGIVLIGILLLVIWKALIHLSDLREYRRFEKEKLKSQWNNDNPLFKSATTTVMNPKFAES

| Compound | IC50 |
| --- | --- |
| O=C1CC[C@@H](C(=O)NC[C@H](NC(=O)c2ccc(C(=O)NCc3cccc(O)c3)cc2Cl)C(=O)O)O1 [Example 96] | 3.1 nM |
| O=C(NCc1cccc(O)c1)c1ccc(C(=O)N[C@@H](CNC(=O)C2CC2)C(=O)O)c(Cl)c1 [Example 97] | 1.9 nM |
| O=C(NCc1cccc(O)c1)c1ccc(C(=O)N[C@@H](CNC(=O)C2(c3ccccc3)CC2)C(=O)O)c(Cl)c1 [Example 99] | 7.5 nM |
| O=C(NCc1cccc(O)c1)c1ccc(C(=O)N[C@@H](CNC(=O)C2CCC2)C(=O)O)c(Cl)c1 [Example 100] | 2.9 nM |
| O=C(NCc1cccc(O)c1)c1ccc(C(=O)N[C@@H](CNC(=O)C2CCCC2)C(=O)O)c(Cl)c1 [Example 101] | 1.9 nM |
| COCCC1(C(=O)NC[C@H](NC(=O)c2ccc(C(=O)NCc3cccc(O)c3)cc2Cl)C(=O)O)CCCC1 [Example 102] | 2.2 nM |
| O=C(NCc1cccc(O)c1)c1ccc(C(=O)N[C@@H](CNC(=O)C2(c3ccccc3)CCCC2)C(=O)O)c(Cl)c1 [Example 103] | 1.6 nM |
| O=C(NCc1cccc(O)c1)c1ccc(C(=O)N[C@@H](CNC(=O)C2CCCCC2)C(=O)O)c(Cl)c1 [Example 104] | 3.5 nM |
| O=C(NCc1cccc(O)c1)c1ccc(C(=O)N[C@@H](CNC(=O)[C@H](CC2CCCCC2)n2cccc2)C(=O)O)c(Cl)c1 [Example 110] | 3.7 nM |
| Cc1noc(C)c1CCC(=O)NC[C@H](NC(=O)c1ccc(C(=O)NCc2cccc(O)c2)cc1Cl)C(=O)O [Example 111] | 2 nM |
| O=C(CCN1CCCCC1)NC[C@H](NC(=O)c1ccc(C(=O)NCc2cccc(O)c2)cc1Cl)C(=O)O [Example 112] | 1.5 nM |
| C/C=C/C(=O)NC[C@H](NC(=O)c1ccc(C(=O)NCc2cccc(O)c2)cc1Cl)C(=O)O [Example 113] | 1.7 nM |
| COc1ccc(/C=C/C(=O)NC[C@H](NC(=O)c2ccc(C(=O)NCc3cccc(O)c3)cc2Cl)C(=O)O)cc1 [Example 114] | 1.8 nM |
| O=C(/C=C/c1cccnc1)NC[C@H](NC(=O)c1ccc(C(=O)NCc2cccc(O)c2)cc1Cl)C(=O)O [Example 115] | 2.2 nM |
| O=C(/C=C/c1cccs1)NC[C@H](NC(=O)c1ccc(C(=O)NCc2cccc(O)c2)cc1Cl)C(=O)O [Example 116] | 1.8 nM |
| CC(=O)Oc1ccccc1C(=O)NC[C@H](NC(=O)c1ccc(C(=O)NCc2cccc(O)c2)cc1Cl)C(=O)O [Example 117] | 3.6 nM |
| O=C(NCc1cccc(O)c1)c1ccc(C(=O)N[C@@H](CNC(=O)c2ccccc2Br)C(=O)O)c(Cl)c1 [Example 120] | 4.9 nM |
| O=C(NCc1cccc(O)c1)c1ccc(C(=O)N[C@@H](CNC(=O)c2cccc(Br)c2)C(=O)O)c(Cl)c1 [Example 121] | 1.6 nM |
| O=C(NCc1cccc(O)c1)c1ccc(C(=O)N[C@@H](CNC(=O)c2ccccc2Cl)C(=O)O)c(Cl)c1 [Example 122] | 2.8 nM |
| O=C(NCc1cccc(O)c1)c1ccc(C(=O)N[C@@H](CNC(=O)c2ccc(Cl)cc2)C(=O)O)c(Cl)c1 [Example 124] | 3.3 nM |
| N#Cc1cccc(C(=O)NC[C@H](NC(=O)c2ccc(C(=O)NCc3cccc(O)c3)cc2Cl)C(=O)O)c1 [Example 126] | 1.2 nM |
| CN(C)c1cccc(C(=O)NC[C@H](NC(=O)c2ccc(C(=O)NCc3cccc(O)c3)cc2Cl)C(=O)O)c1 [Example 127] | 2.2 nM |
| CN(C)c1ccc(C(=O)NC[C@H](NC(=O)c2ccc(C(=O)NCc3cccc(O)c3)cc2Cl)C(=O)O)cc1 [Example 128] | 4.2 nM |
| CCOc1ccc(C(=O)NC[C@H](NC(=O)c2ccc(C(=O)NCc3cccc(O)c3)cc2Cl)C(=O)O)cc1 [Example 130] | 5 nM |

| Compound | IC50 |
| --- | --- |
| O=C(NCc1cccc(O)c1)c1ccc(C(=O)N[C@@H](CNC(=O)c2cccc(I)c2)C(=O)O)c(Cl)c1 [Example 133] | 1.5 nM |
| COc1ccccc1C(=O)NC[C@H](NC(=O)c1ccc(C(=O)NCc2cccc(O)c2)cc1Cl)C(=O)O [Example 134] | 2.1 nM |
| COc1ccc(C(=O)NC[C@H](NC(=O)c2ccc(C(=O)NCc3cccc(O)c3)cc2Cl)C(=O)O)cc1 [Example 135] | 6.3 nM |
| COC(=O)c1cccc(C(=O)NC[C@H](NC(=O)c2ccc(C(=O)NCc3cccc(O)c3)cc2Cl)C(=O)O)c1 [Example 136] | 2 nM |
| Cc1ccccc1C(=O)NC[C@H](NC(=O)c1ccc(C(=O)NCc2cccc(O)c2)cc1Cl)C(=O)O [Example 137] | 1.1 nM |
| Cc1ccc(C(=O)NC[C@H](NC(=O)c2ccc(C(=O)NCc3cccc(O)c3)cc2Cl)C(=O)O)cc1 [Example 139] | 4.8 nM |
| O=C(NCc1cccc(O)c1)c1ccc(C(=O)N[C@@H](CNC(=O)c2ccccc2[N+](=O)[O-])C(=O)O)c(Cl)c1 [Example 140] | 1.8 nM |
| O=C(NCc1cccc(O)c1)c1ccc(C(=O)N[C@@H](CNC(=O)c2cccc([N+](=O)[O-])c2)C(=O)O)c(Cl)c1 [Example 141] | 1.9 nM |
| O=C(NCc1cccc(O)c1)c1ccc(C(=O)N[C@@H](CNC(=O)c2ccc([N+](=O)[O-])cc2)C(=O)O)c(Cl)c1 [Example 142] | 2 nM |
| CCCCCOc1ccc(C(=O)NC[C@H](NC(=O)c2ccc(C(=O)NCc3cccc(O)c3)cc2Cl)C(=O)O)cc1 [Example 143] | 11 nM |
| O=C(NCc1cccc(O)c1)c1ccc(C(=O)N[C@@H](CNC(=O)c2ccccc2Oc2ccccc2)C(=O)O)c(Cl)c1 [Example 144] | 6.6 nM |
| O=C(NCc1cccc(O)c1)c1ccc(C(=O)N[C@@H](CNC(=O)c2cc(F)c(F)cc2F)C(=O)O)c(Cl)c1 [Example 145] | 1.7 nM |
| O=C(NCc1cccc(O)c1)c1ccc(C(=O)N[C@@H](CNC(=O)c2cccc(C(F)(F)F)c2)C(=O)O)c(Cl)c1 [Example 146] | 2.6 nM |
| COc1cc(C(=O)NC[C@H](NC(=O)c2ccc(C(=O)NCc3cccc(O)c3)cc2Cl)C(=O)O)cc(OC)c1OC [Example 147] | 15 nM |
| O=C(NCc1cccc(O)c1)c1ccc(C(=O)N[C@@H](CNC(=O)c2ccco2)C(=O)O)c(Cl)c1 [Example 148] | 1.4 nM |
| O=C(NCc1cccc(O)c1)c1ccc(C(=O)N[C@@H](CNC(=O)c2ccc([N+](=O)[O-])o2)C(=O)O)c(Cl)c1 [Example 149] | 2.9 nM |
| O=C(NCc1cccc(O)c1)c1ccc(C(=O)N[C@@H](CNC(=O)c2ccc(Br)o2)C(=O)O)c(Cl)c1 [Example 150] | 2.5 nM |
| O=C(NCc1cccc(O)c1)c1ccc(C(=O)N[C@@H](CNC(=O)c2ccc[nH]2)C(=O)O)c(Cl)c1 [Example 151] | 2.8 nM |
| Cc1noc(C)c1C(=O)NC[C@H](NC(=O)c1ccc(C(=O)NCc2cccc(O)c2)cc1Cl)C(=O)O [Example 153] | 7.7 nM |
| O=C(NCc1cccc(O)c1)c1ccc(C(=O)N[C@@H](CNC(=O)c2sccc2Br)C(=O)O)c(Cl)c1 [Example 154] | 0.9 nM |
| O=C(NCc1cccc(O)c1)c1ccc(C(=O)N[C@@H](CNC(=O)c2sccc2Cl)C(=O)O)c(Cl)c1 [Example 156] | 1 nM |
| O=C(NCc1cccc(O)c1)c1ccc(C(=O)N[C@@H](CNC(=O)c2ccc(Cl)s2)C(=O)O)c(Cl)c1 [Example 157] | 1.2 nM |
| O=C(NCc1cccc(O)c1)c1ccc(C(=O)N[C@@H](CNC(=O)c2cc(Br)c(Br)s2)C(=O)O)c(Cl)c1 [Example 158] | 7.5 nM |
| Cc1ccsc1C(=O)NC[C@H](NC(=O)c1ccc(C(=O)NCc2cccc(O)c2)cc1Cl)C(=O)O [Example 159] | 0.9 nM |
